Assay results taken from US20070161568A1, “Use of GLP-1 peptides” (Novo Nordisk A/S, priority 1996, published 2007).
Read-outs that look alike come from different tables or passages of the source. No end group written: not given here.

Tests used:
[1] = system: food intake in normal human subjects; assay: iv infusion of GLP-1(7-36)amide in a double-blind crossover trial: visual analogue scale ratings and ad libitum lunch energy intake; type: in vivo
Text: The effect of GLP-1(7-36)amide on food intake in normal human subjects.
Healthy human volunteers (20 subjects) were in a double-blind crossover trial given an iv infusion of 50 pmol/(kg·h) of GLP-1(7-36)amide or saline on separate, but otherwise identical experimental days. The infusion was started at 9.00 and lasted until 15.00. At 9.45 the subjects received a fixed amount of breakfast and at 14.15 they had lunch of an identical composition but ad libitum. The subjects rated their feeling of satiety, hunger, fullness and appetite on a visual analogue scale every half hour. The results are given below: • Satiety: GLP-1>Saline, p=0.006 • Hunger: GLP-1<Saline, p=0.007 • Fullness: GLP-1>Saline, p=0.010 • Appetite: GLP-1<Saline, p=0.007
The energy intake of each subjects was measured. The intakes were 3.9 MJ with GLP-1 and 4.3 MJ with Saline resulting in a p-value of 0.009.

food intake in rats = details: cited from earlier work
[2] = system: appetite suppression in mice; assay: appetite suppression in mice: sucrose consumption, tested immediately after ip injection (Example 2); type: in vivo; details: 85 micrograms (equivalent to 3.4 mg/kg), 10 minute period, p-value 0.002
Description: Test method for measuring appetite suppression in mice.
Mice were deprived of their normal food for two days and given free access to a 20% sucrose solution on the first day of food deprivation. After the two day food deprivation period, the mice were injected intraperitoneally with 0.5 ml of a solution containing the test substance. Immediately after injection, individual mice were placed in one of eight 15 cm square test boxes with a stainless steel grid floor and a glass drinking tube which projected into the box. […] Consumption of the sucrose solution was measured over a 10 minute period by electronically recording the total amount of contact with the sucrose solution during the test session. The degree of appetite suppression produced by a given test substance was determined by statistical comparison of the mean duration of sucrose consumption by control (vehicle treated) mice with that of mice treated with a test substance. The degree of appetite suppression in a treated group of mice was expressed as percent difference between the test and control group's response duration means. […]

[3] = healthy human volunteers, iv infusion 50 pmol/(kg·h) vs saline, p=0.007

GLP-1: proglucagon fragment 72-108, commonly referred to as GLP-1(1-37) or just GLP-1; in b61 it means GLP-1(7-36)amide
energy intake ([1]; ad libitum lunch, iv infusion 50 pmol/(kg·h), saline 4.3 MJ, p-value 0.009): 3.9 mJ | effect on food intake (food intake in rats; administered intracerebroventricularly, Tang-Christensen et al.): profound effect | effect on food intake (food intake in rats; administered intracerebroventricularly, Turton et al.): profound effect | effect on food intake (food intake in rats; peripheral administration, Turton et al.): inactive | effect on food intake (food intake in rats; peripherally administered, Tang-Christensen et al.): no significant effect

GLP-1(1-36)amide (HDEFERHAEGTFTSDVSSYLEGQAAKEFIAWLVKGR-NH2; UniProt P01275 92-127, looked up, fragment) [GLP-1 fragment 1-36 as C-terminal amide, literature result]
effect on food intake (food intake in rats; route not stated, Tang-Christensen et al.): no effect

GLP-1(7-36)amide (HAEGTFTSDVSSYLEGQAAKEFIAWLVKGR-NH2; UniProt P01275 98-127, looked up) [fragment 7-36 of GLP-1 as C-terminal amide]
Satiety (visual analogue scale) ([1]; healthy human volunteers, iv infusion 50 pmol/(kg·h) vs saline, rated every half hour, p=0.006): GLP-1>Saline | Appetite (visual analogue scale) [1, 3]: GLP-1<Saline | Hunger (visual analogue scale) [1, 3]: GLP-1<Saline | Fullness (visual analogue scale) ([1]; healthy human volunteers, iv infusion 50 pmol/(kg·h) vs saline, p=0.010): GLP-1>Saline | suppression of sucrose consumption [2]: 60%
